Measured values published in patent US7307096B2, “Combined agents for treatment of glaucoma” (Sankyo Company, Limited, priority 1999, dated 2007).
Where a name gives a salt, the structure may show the parent alone.

How the values were obtained:
glaucoma = details: clinical trial; Eur. J. Ophthalmol. 1997, 7(1): 35-9; cited from earlier work
[1] = test system: intraocular pressure of New Zealand White Rabbits; assay: Intraocular pressure lowering test (3), change ratio of intraocular pressure (Example 3); assay type: in vivo; details: 50 μl each, four hours after second administration
Experimental: Using a tonometer (“Alcon Applanation Pneumatonography; manufactured by Alcon), the intraocular pressure of each of New Zealand White Rabbits having body weights of 2 to 3 kg was measured (without anesthesia), followed by administration of 50 μl of a test compound in the form of eye drops. The intraocular pressure was then measured for 4 hours at intervals of one hour (single administration test).
After the measurement of the intraocular pressure as in Example 2, 50 μl of a solution of test compound 1 was instilled into the eyes, followed by administration of the same amount of the solution of test compound 2 after 5 minutes. Four hours after the second administration, the intraocular pressure was measured and the change ratio of the intraocular pressure was determined by the below-described equation: The change ratio of intraocular pressure (%)=[(intraocular pressure after administration of eye drops−intraocular pressure before administration of eye drops)/intraocular pressure before administration of eye drops]×100.
In this Example, the same test compounds as Example 1 were employed. The results are shown below in Tables 1 and 2.

[2] = test system: ocular hypertension models of New Zealand White Rabbits; assay: Intraocular pressure lowering test (4), ocular hypertension model (Example 4); assay type: in vivo; details: relative to control group
Experimental: Using New Zealand White Rabbits having body weights of 2 to 3 kg, ocular hypertension models were prepared in accordance with the method of Kurihara, et al. (Jpn. J. Ocular Pharmacology, 4, 62-64(1990)) and the intraocular pressure lowering action of the test compounds was investigated.
Described specifically, the rabbits were maintained under general anesthesia and their intraocular pressure was measured using a tonometer (“Alcon Applanation Pneumatonography”; manufactured by Alcon). After instillation of local anesthetics into the eyes of the rabbits, 0.1 ml of a 5% sodium chloride solution were injected into their vitreous bodies through a 30 gauge needle. An increase in the intraocular pressure was confirmed 30 minutes after injection, followed by administration of 50 μl of an eye drop solution containing the test compound. Their intraocular pressure was then measured for 2 hours at intervals of 30 minutes (single administration test).
An ocular hypertension model was made as in Example 1. After confirmation of an increase in the intraocular pressure, 50 μl of a test compound 1 was instilled to the eyes, followed by application of the same amount of a test compound 2 into the eyes after 5 minutes. After this second administration, the intraocular pressure was measured for 2 hours at intervals of 1 hour. Intraocular pressure lowering was determined by the below-described equation. Decrease in intraocular pressure (mmHg)=(intraocular pressure after instillation of a compound group−intraocular pressure before instillation of the compound group)−(intraocular pressure after instillation of a control group−intraocular pressure before instillation of the control group)
The term “control group” in the above-described formula means a group to which physiological saline was administered to the eyes instead of each of the test compound 1 and test compound 2. Groups other than this control group are a compound group.
Also in this Example, the same test compounds as described in Example 1 were employed.

In the case of `CCCCC(=O)N(Cc1ccc(-c2ccccc2-c2nnn[nH]2)cc1)[C@H](C(=O)O)C(C)C` [CGP-48933], the effect for glaucoma (glaucoma) is listed as “insufficient”.
In the case of `CCCc1nc(C(C)(C)O)c(C(=O)O)n1Cc1ccc(-c2ccccc2-c2nnn[nH]2)cc1` [Compound A], the “Change ratio (%) of intraocular pressure” value ([1]; Table 1, Compound A (4%) then physiological saline) is reported as 11.4 ± 5.5%, the “Change ratio (%) of intraocular pressure” value ([1]; Table 2, Compound A (4%) then physiological saline) is reported as 11.5 ± 4.1% and the “Decrease in intraocular pressure (mmHg)” value ([2]; Compound A (1%) then physiological saline, time after instillation 0 min) is reported as 0.0 ± 2.1 mmHg. For the same compound, the “Decrease in intraocular pressure (mmHg)” value ([2]; Compound A (1%) then physiological saline, time after instillation 60 min) was −1.7 ± 2.2 mmHg and the “Decrease in intraocular pressure (mmHg)” value ([2]; Compound A (1%) then physiological saline, time after instillation 120 min) was −3.4 ± 1.7 mmHg.
With `CC(C)(C)NC[C@H](O)COc1nsnc1N1CCOCC1` [Compound B, timolol maleate] the “Decrease in intraocular pressure (mmHg)” value ([2]; physiological saline then Compound B (0.25%), time after instillation 0 min) was 0.0 ± 1.5 mmHg, the “Decrease in intraocular pressure (mmHg)” value ([2]; physiological saline then Compound B (0.25%), time after instillation 60 min) was −2.0 ± 3.5 mmHg and the “Decrease in intraocular pressure (mmHg)” value ([2]; physiological saline then Compound B (0.25%), time after instillation 120 min) was −1.9 ± 3.2 mmHg.
In the case of `CCCCCCCC(=O)CC[C@@H]1[C@@H](C/C=C\CCCC(=O)OC(C)C)[C@@H](O)C[C@H]1O` [Compound C, isopropyl unoprostone], the “Change ratio (%) of intraocular pressure” value ([1]; Table 1, physiological saline then Compound C (0.12%)) is reported as −2.4 ± 9.1%.
With `CC(C)OC(=O)CCC/C=C\C[C@@H]1[C@@H](CC[C@@H](O)CCc2ccccc2)[C@H](O)C[C@@H]1O` [Compound D, latanoprost] the “Change ratio (%) of intraocular pressure” value ([1]; Table 2, physiological saline then Compound D (0.005%)) was 17.2 ± 8.8%.
